Reference: the supplement of paper PMC10307832

Columns and labels:
Assay in all cases: relative viability (nuclei count vs DMSO), 5 days (fraction); higher = more cells survive
COR-L 105 = tested on: COR-L 105
Procedure, shortened: (§1)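 Relative viability divides the nuclei count in treated wells by that in vehicle wells. Lung cancer cell lines were seeded in 1536-well plates, dosed by pin tool the next day, and fixed and stained after 5 days in one step with final 0.05% Triton X-100, 1% formaldehyde and 1 ug/ml Hoechst. Dosing was a single drug or a fixed anchor-drug dose plus five library-drug doses (not always all listed) in √10 steps, and values are medians of duplicate plates imaged at 4×.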

COR-L23 = tested on: COR-L23
Procedure, shortened: as §1

EKVX = tested on: EKVX
Procedure, shortened: as §1

HARA = tested on: HARA
Procedure, shortened: as §1

HOP-62 = tested on: HOP-62
Procedure, shortened: as §1

NCI-H1355 = tested on: NCI-H1355
Procedure, shortened: as §1

NCI-H1395 = tested on: NCI-H1395
Procedure, shortened: as §1

NCI-H1734 = tested on: NCI-H1734
Procedure, shortened: as §1

NCI-H1755 = tested on: NCI-H1755
Procedure, shortened: as §1

NCI-H1793 = tested on: NCI-H1793
Procedure, shortened: as §1

NCI-H1993 = tested on: NCI-H1993
Procedure, shortened: as §1

NCI-H2009 = tested on: NCI-H2009
Procedure, shortened: as §1

NCI-H2170 = tested on: NCI-H2170
Procedure, shortened: as §1

NCI-H2228 = tested on: NCI-H2228
Procedure, shortened: as §1

NCI-H2342 = tested on: NCI-H2342
Procedure, shortened: as §1

NCI-H2347 = tested on: NCI-H2347
Procedure, shortened: as §1

NCI-H322M = tested on: NCI-H322M
Procedure, shortened: as §1

NCI-H358 = tested on: NCI-H358
Procedure, shortened: as §1

NCI-H522 = tested on: NCI-H522
Procedure, shortened: as §1

NCI-H647 = tested on: NCI-H647
Procedure, shortened: as §1

NCI-H838 = tested on: NCI-H838
Procedure, shortened: as §1

PC-14 = tested on: PC-14
Procedure, shortened: as §1

SK-MES-1 = tested on: SK-MES-1
Procedure, shortened: as §1

UMC-11 = tested on: UMC-11
Procedure, shortened: as §1

SMILES: CC(C)Oc1cc(Nc2nc(N[C@@H](C)c3ccc(F)cn3)ncc2Cl)n[nH]1 [AZ23] + COc1cccc2cc(-c3nc([C@H]4CC[C@H](C(=O)O)CC4)n4ncnc(N)c34)[nH]c12 [OSI-027] (partner 0.5 µM)
- relative viability (COR-L 105; first compound 0.01 µM): 0.657
- relative viability (COR-L 105; first compound 0.03162 µM): 0.849
- relative viability (COR-L 105; first compound 0.3162 µM): 0.809
- relative viability (COR-L23; first compound 0.01 µM): 0.758
- relative viability (COR-L23; first compound 0.03162 µM): 0.868
- relative viability (COR-L23; first compound 0.3162 µM): 0.822
- relative viability (EKVX; first compound 0.01 µM): 0.801
- relative viability (EKVX; first compound 0.03162 µM): 0.636
- relative viability (EKVX; first compound 0.3162 µM): 0.66
- relative viability (HARA; first compound 0.03162 µM): 0.686
- relative viability (HARA; first compound 0.3162 µM): 0.415
- relative viability (HOP-62; first compound 0.01 µM): 0.853
- relative viability (HOP-62; first compound 0.03162 µM): 0.924
- relative viability (HOP-62; first compound 0.3162 µM): 0.973
- relative viability (NCI-H1355; first compound 0.01 µM): 0.401
- relative viability (NCI-H1355; first compound 0.03162 µM): 0.421
- relative viability (NCI-H1355; first compound 0.3162 µM): 0.361
- relative viability (NCI-H1395; first compound 0.03162 µM): 0.708
- relative viability (NCI-H1395; first compound 0.3162 µM): 0.655
- relative viability (NCI-H1734; first compound 0.01 µM): 0.628
- relative viability (NCI-H1734; first compound 0.03162 µM): 0.62
- relative viability (NCI-H1734; first compound 0.3162 µM): 0.588
- relative viability (NCI-H1755; first compound 0.01 µM): 0.639
- relative viability (NCI-H1755; first compound 0.03162 µM): 0.809
- relative viability (NCI-H1755; first compound 0.3162 µM): 0.771
- relative viability (NCI-H1793; first compound 0.01 µM): 0.226
- relative viability (NCI-H1793; first compound 0.03162 µM): 0.303
- relative viability (NCI-H1793; first compound 0.3162 µM): 0.28
- relative viability (NCI-H1993; first compound 0.01 µM): 0.581
- relative viability (NCI-H1993; first compound 0.03162 µM): 0.559
- relative viability (NCI-H1993; first compound 0.3162 µM): 0.529
- relative viability (NCI-H2009; first compound 0.01 µM): 0.651
- relative viability (NCI-H2009; first compound 0.03162 µM): 0.706
- relative viability (NCI-H2009; first compound 0.3162 µM): 0.765
- relative viability (NCI-H2170; first compound 0.01 µM): 0.664
- relative viability (NCI-H2170; first compound 0.03162 µM): 0.722
- relative viability (NCI-H2170; first compound 0.3162 µM): 0.726
- relative viability (NCI-H2228; first compound 0.01 µM): 0.785
- relative viability (NCI-H2228; first compound 0.03162 µM): 0.776
- relative viability (NCI-H2228; first compound 0.3162 µM): 0.671
- relative viability (NCI-H2342; first compound 0.01 µM): 0.702
- relative viability (NCI-H2342; first compound 0.03162 µM): 0.593
- relative viability (NCI-H2342; first compound 0.3162 µM): 0.569
- relative viability (NCI-H2347; first compound 0.01 µM): 0.298
- relative viability (NCI-H2347; first compound 0.03162 µM): 0.262
- relative viability (NCI-H2347; first compound 0.3162 µM): 0.389
- relative viability (NCI-H322M; first compound 0.03162 µM): 0.594
- relative viability (NCI-H322M; first compound 0.3162 µM): 0.521
- relative viability (NCI-H358; first compound 0.01 µM): 0.682
- relative viability (NCI-H358; first compound 0.03162 µM): 0.725
- relative viability (NCI-H358; first compound 0.3162 µM): 0.805
- relative viability (NCI-H522; first compound 0.01 µM): 0.639
- relative viability (NCI-H522; first compound 0.03162 µM): 0.711
- relative viability (NCI-H522; first compound 0.3162 µM): 0.563
- relative viability (NCI-H647; first compound 0.01 µM): 0.765
- relative viability (NCI-H647; first compound 0.03162 µM): 0.745
- relative viability (NCI-H647; first compound 0.3162 µM): 0.789
- relative viability (NCI-H838; first compound 0.01 µM): 0.437
- relative viability (NCI-H838; first compound 0.03162 µM): 0.402
- relative viability (NCI-H838; first compound 0.3162 µM): 0.424
- relative viability (PC-14; first compound 0.03162 µM): 1.01
- relative viability (PC-14; first compound 0.3162 µM): 1.24
- relative viability (SK-MES-1; first compound 0.03162 µM): 0.711
- relative viability (SK-MES-1; first compound 0.3162 µM): 0.745
- relative viability (UMC-11; first compound 0.01 µM): 0.429
- relative viability (UMC-11; first compound 0.03162 µM): 0.505
- relative viability (UMC-11; first compound 0.3162 µM): 0.494
